In publication PMC10082216 (Nature Communications, 2023):
Like-named read-outs stand apart in the source and are kept apart here.

Assay: TD-6450 phase I clinical study (SAD/MAD): pharmacokinetics
Assay type: in vivo, human
Settings: human
Procedure: Primary and secondary outcomes were pre-defined as follows: Safety and tolerability as a primary outcome, pharmacokinetics as a secondary outcome. Safety and tolerability were evaluated using standard measures, including adverse event (AE) monitoring, clinical laboratory tests (hematology, serum chemistry, coagulation, and urinalysis), vital signs, physical examinations, and 12-lead electrocardiograms (ECGs). […]
This study was conducted in two parts, Part A (SAD) and Part B (MAD). For the Part A, the age of enrolled subjects ranged from 20 to 60 years, with a mean age range of 32.1 to 46.2 years. Most subjects were male (73 total subjects) and most were white (55 subjects) or black (22 subjects). For Part B of the study, ages ranged from 23 to 60 years with a similar mean age across treatment groups. Most subjects were male (25 total subjects) and all were either white (18 subjects) or black (12 subjects). For each part of the study, the mean body mass index (BMI) and creatinine clearance were similar across treatment groups. […] Part A: Healthy subjects were sequentially enrolled and randomly assigned to each dose cohort (up to 10 dose-ascending cohorts were planned, including a fed arm in the food effect cohort) to receive either a single dose of TD-6450 or placebo. For each dose cohort, 8 subjects were randomized in a 3:1 ratio (6 subjects received TD-6450 and 2 subjects received placebo). The starting dose of TD-6450 was 0.5 mg with a planned maximum dose of 1000 mg. Upon review of the 500-mg cohort PK data, the decision was made to not escalate to the 1000-mg cohort because of exposure saturation at ≥ 500 mg. The following doses were administered: 0.5 mg, 1.5 mg, 5 mg, 15 mg, 30 mg, 60 mg, 120 mg, 240 mg, and 500 mg. Part B: Healthy subjects were sequentially enrolled in 3 ascending dose cohorts (TD-6450 60 mg, 120 mg, and 240 mg) and randomly assigned to receive either TD-6450 or placebo as once daily doses for 14 days. For each dose cohort, 10 subjects were randomized in a 4:1 ratio (8 subjects received TD-6450 and 2 subjects received placebo). Blinded safety, tolerability, and available PK data after each dose cohort were reviewed by the Safety Data Review Committee (SDRC) before escalation to the next dosing cohort for both part A and B. Subjects of the clinical study were randomly assigned to each cohort. Randomizations codes were assigned to the subjects. All study subjects, study investigators, and the sponsor’s staff involved in the conduct of the study were blinded to treatment assignment. The only personnel who had access to the randomization code before database lock were: The pharmacist or pharmacy staff member who prepared drug or placebo capsules for administration to the subject according to the randomization code and the bioanalytical contract laboratory that analyzed the PK samples (plasma and urine).

SMILES: CNC(=O)N1C[C@@H](C)N(c2ccc(C(=O)Nc3ccc(-c4ccc(-c5c[nH]c([C@@H]6CCCN6C(=O)[C@@H](NC(=O)OC)C(C)C)n5)cc4)c(OC(F)(F)F)c3)cn2)C[C@@H]1C [TD-6450]
- concentration at 144 h (female, plasma, oral, 15 mg, Female subjects, SAD arm NCT02022306, Dose 15.00, 144 Hours, read-out: Concentration): 4 ng/mL
- concentration at 168 h (female, plasma, oral, 15 mg, Female subjects, SAD arm NCT02022306, Dose 15.00, 168 Hours, read-out: Concentration): 3.58 ng/mL
- concentration at 3 h (female, plasma, oral, 30 mg, Female subjects, SAD arm NCT02022306, Dose 30.00, 3 Hours, read-out: Concentration): 24.8 ng/mL
- concentration at 4 h (female, plasma, oral, 30 mg, Female subjects, SAD arm NCT02022306, Dose 30.00, 4 Hours, read-out: Concentration): 40.6 ng/mL
- concentration at 6 h (female, plasma, oral, 30 mg, Female subjects, SAD arm NCT02022306, Dose 30.00, 6 Hours, read-out: Concentration): 70.6 ng/mL
- concentration at 8 h (female, plasma, oral, 30 mg, Female subjects, SAD arm NCT02022306, Dose 30.00, 8 Hours, read-out: Concentration): 69.5 ng/mL
- concentration at 12 h (female, plasma, oral, 30 mg, Female subjects, SAD arm NCT02022306, Dose 30.00, 12 Hours, read-out: Concentration): 45.3 ng/mL
- concentration at 15 min (female, plasma, oral, 30 mg, Female subjects, SAD arm NCT02022306, Dose 30.00, 15 Minutes, read-out: Concentration): 0 ng/mL
- concentration at 24 h (female, plasma, oral, 30 mg, Female subjects, SAD arm NCT02022306, Dose 30.00, 24 Hours, read-out: Concentration): 34.1 ng/mL
- concentration at 48 h (female, plasma, oral, 30 mg, Female subjects, SAD arm NCT02022306, Dose 30.00, 48 Hours, read-out: Concentration): 22.3 ng/mL
- concentration at 72 h (female, plasma, oral, 30 mg, Female subjects, SAD arm NCT02022306, Dose 30.00, 72 Hours, read-out: Concentration): 16.1 ng/mL
- concentration at 96 h (female, plasma, oral, 30 mg, Female subjects, SAD arm NCT02022306, Dose 30.00, 96 Hours, read-out: Concentration): 10.8 ng/mL
- concentration at 120 h (female, plasma, oral, 30 mg, Female subjects, SAD arm NCT02022306, Dose 30.00, 120 Hours, read-out: Concentration): 9.27 ng/mL
- concentration at 144 h (female, plasma, oral, 30 mg, Female subjects, SAD arm NCT02022306, Dose 30.00, 144 Hours, read-out: Concentration): 6.93 ng/mL
- concentration at 168 h (female, plasma, oral, 30 mg, Female subjects, SAD arm NCT02022306, Dose 30.00, 168 Hours, read-out: Concentration): 5.12 ng/mL
- concentration at 1 h (female, plasma, oral, 60 mg, Female subjects, SAD arm NCT02022306, Dose 60.00, 1 Hour, read-out: Concentration): 7.46 ng/mL
- concentration at 2 h (female, plasma, oral, 60 mg, Female subjects, SAD arm NCT02022306, Dose 60.00, 2 Hours, read-out: Concentration): 114 ng/mL
- concentration at 3 h (female, plasma, oral, 60 mg, Female subjects, SAD arm NCT02022306, Dose 60.00, 3 Hours, read-out: Concentration): 70.5 ng/mL
- concentration at 4 h (female, plasma, oral, 60 mg, Female subjects, SAD arm NCT02022306, Dose 60.00, 4 Hours, read-out: Concentration): 94.5 ng/mL
- concentration at 6 h (female, plasma, oral, 60 mg, Female subjects, SAD arm NCT02022306, Dose 60.00, 6 Hours, read-out: Concentration): 109 ng/mL
- concentration at 8 h (female, plasma, oral, 60 mg, Female subjects, SAD arm NCT02022306, Dose 60.00, 8 Hours, read-out: Concentration): 87.4 ng/mL
- concentration at 12 h (female, plasma, oral, 60 mg, Female subjects, SAD arm NCT02022306, Dose 60.00, 12 Hours, read-out: Concentration): 60.5 ng/mL
- concentration at 15 min (female, plasma, oral, 60 mg, Female subjects, SAD arm NCT02022306, Dose 60.00, 15 Minutes, read-out: Concentration): 0 ng/mL
- concentration at 24 h (female, plasma, oral, 60 mg, Female subjects, SAD arm NCT02022306, Dose 60.00, 24 Hours, read-out: Concentration): 38.9 ng/mL
- concentration at 30 min (female, plasma, oral, 60 mg, Female subjects, SAD arm NCT02022306, Dose 60.00, 30 Minutes, read-out: Concentration): 0.74 ng/mL
- concentration at 48 h (female, plasma, oral, 60 mg, Female subjects, SAD arm NCT02022306, Dose 60.00, 48 Hours, read-out: Concentration): 29.3 ng/mL
- concentration at 72 h (female, plasma, oral, 60 mg, Female subjects, SAD arm NCT02022306, Dose 60.00, 72 Hours, read-out: Concentration): 22.4 ng/mL
- concentration at 96 h (female, plasma, oral, 60 mg, Female subjects, SAD arm NCT02022306, Dose 60.00, 96 Hours, read-out: Concentration): 17.2 ng/mL
- concentration at 120 h (female, plasma, oral, 60 mg, Female subjects, SAD arm NCT02022306, Dose 60.00, 120 Hours, read-out: Concentration): 12.8 ng/mL
- concentration at 144 h (female, plasma, oral, 60 mg, Female subjects, SAD arm NCT02022306, Dose 60.00, 144 Hours, read-out: Concentration): 11.1 ng/mL
- concentration at 168 h (female, plasma, oral, 60 mg, Female subjects, SAD arm NCT02022306, Dose 60.00, 168 Hours, read-out: Concentration): 8.61 ng/mL
- concentration at 3 h (in vivo, 1.5 mg, Male subjects, SAD arm NCT02022306, Dose 1.50, 3 Hours, read-out: Concentration): 1.48 ng/mL
- concentration at 4 h (in vivo, 1.5 mg, Male subjects, SAD arm NCT02022306, Dose 1.50, 4 Hours, read-out: Concentration): 1.92 ng/mL
- concentration at 6 h (in vivo, 1.5 mg, Male subjects, SAD arm NCT02022306, Dose 1.50, 6 Hours, read-out: Concentration): 1.07 ng/mL
- concentration at 120 h (in vivo, 5 mg, Female subjects, SAD arm NCT02022306, Dose 5.00, 120 Hours, read-out: Concentration): 1.07 ng/mL
- concentration at 48 h (in vivo, 5 mg, Male subjects, SAD arm NCT02022306, Dose 5.00, 48 Hours, read-out: Concentration): 1.81 ng/mL
- concentration at 120 h (in vivo, 5 mg, Male subjects, SAD arm NCT02022306, Dose 5.00, 120 Hours, read-out: Concentration): 1.48 ng/mL
- concentration at 168 h (in vivo, 15 mg, Male subjects, SAD arm NCT02022306, Dose 15.00, 168 Hours, read-out: Concentration): 2.59 ng/mL
- concentration at 2 h (in vivo, 30 mg, Male subjects, SAD arm NCT02022306, Dose 30.00, 2 Hours, read-out: Concentration): 8.22 ng/mL
- concentration at 30 min (in vivo, 120 mg, Male subjects, SAD arm NCT02022306, Dose 120.00, 30 Minutes, read-out: Concentration (ng/ml)): 1.01 ng/mL
- concentration at 168 h (in vivo, 120 mg, Male subjects, SAD arm NCT02022306, Dose 120.00, 168 Hours, read-out: Concentration (ng/ml)): 10.2 ng/mL
- concentration at 312 h (in vivo, 240 mg, Male subjects, SAD arm NCT02022306, Dose 240.00, 312 Hours, read-out: Concentration (ng/ml)): 4.88 ng/mL
- TD-6450 concentration (in vivo, 48 h): 107.00 ng/mL
- TD-6450 concentration (in vivo, 72 h): 273.00 ng/mL
- TD-6450 concentration (in vivo, 96 h): 123.00 ng/mL
- TD-6450 concentration (in vivo, 120 h): 102.00 ng/mL
- TD-6450 concentration (in vivo, 144 h): 74.40 ng/mL
- TD-6450 concentration (in vivo, 336 h): 6.38 ng/mL
- Cmax (plasma, oral, 60 mg, SAD 60 mg, read-out: Cmax Mean ± SD): 123 ± 60.3 nM
- half-life (plasma, oral, 60 mg, SAD 60 mg, read-out: t1/2 Mean ± SD (converted)): 2.56 ± 0.492 days
- TD-6450 concentration (male, in vivo): 0.00 ng/mL
- TD-6450 concentration (male, in vivo, 2 h): 179.00 ng/mL
- TD-6450 concentration (male, in vivo, 3 h): 273.00 ng/mL
- TD-6450 concentration (male, in vivo, 4 h): 303.00 ng/mL
- TD-6450 concentration (male, in vivo, 6 h): 309.00 ng/mL
- TD-6450 concentration (male, in vivo, 12 h): 216.00 ng/mL
- TD-6450 concentration (male, in vivo, 24 h): 144.00 ng/mL
- TD-6450 concentration (male, in vivo, 48 h): 90.40 ng/mL
- TD-6450 concentration (male, in vivo, 72 h): 61.10 ng/mL
- TD-6450 concentration (male, in vivo, 96 h): 40.80 ng/mL
